US20230391760A1, “HETEROCYCLIC GLP-1 AGONISTS” (Gasherbrum Bio, Inc., priority 2020, published 2023)

Biological target: GLP-1 Receptor (Homo sapiens, UniProt P43220)
Assay: GLP-1R agonist cAMP stimulation assay (HEK293/GLP1R/CRE-LUC cells, cAMP dynamic 2 Kit)
Format: cell-based
Settings: HEK293/CRE-Luc cell line stably expressing the GLP-1 Receptor, 30 min at 37° C.
How it was run: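 HEK293 cells stably expressing human GLP-1R with CRE-luciferase, 1000 cells/well in DPBS with 0.5 mM IBMX and 0.1% BSA, treated with compound in 1/2-log serial dilution for 30 min at 37 °C. cAMP then detected by HTRF (cAMP-d2 plus anti-cAMP cryptate), 1 h at room temperature in the dark.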

Sequence of GLP-1 Receptor (P43220 24-463, species assumed): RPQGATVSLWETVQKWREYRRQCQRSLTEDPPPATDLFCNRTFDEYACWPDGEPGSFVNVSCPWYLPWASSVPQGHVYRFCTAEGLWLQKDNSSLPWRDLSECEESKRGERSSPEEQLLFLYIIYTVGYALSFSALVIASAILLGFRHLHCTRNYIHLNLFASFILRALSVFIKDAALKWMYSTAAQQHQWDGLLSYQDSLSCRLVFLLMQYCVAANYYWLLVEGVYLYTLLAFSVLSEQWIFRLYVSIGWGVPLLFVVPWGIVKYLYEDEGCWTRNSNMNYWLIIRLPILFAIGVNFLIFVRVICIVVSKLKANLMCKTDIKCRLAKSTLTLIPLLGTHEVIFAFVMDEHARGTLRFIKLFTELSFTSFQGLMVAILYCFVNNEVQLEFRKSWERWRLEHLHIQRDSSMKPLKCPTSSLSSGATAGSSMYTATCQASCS

Structure (SMILES) | EC50 [nM]
Cc1ccc(C(=O)Nc2ccc3c(c2)nc(CN2CCC(c4cccc(OCc5ccc(Cl)cc5F)n4)CC2)n3C[C@@H]2CCO2)cn1 [Compound 173a, N-{2-[(4-{6-[(4-chloro-2-fluorophenyl)methoxy]pyridin-2-yl}piperidin-1-yl)methyl]-1-{[(2S)-oxetan-2-yl]methyl}-1H-1,3-benzodiazol-5-yl}-6-methylpyridine-3-carboxamide] | 0.26
O=C(Nc1ccc2c(c1)nc(CN1CCC(c3cccc(OCc4ccc(Cl)cc4F)n3)CC1)n2C[C@@H]1CCO1)C1CCO1 (stereo partly drawn) [Compound 129a, N-{2-[(4-{6-[(4-chloro-2-fluorophenyl)methoxy]pyridin-2-yl}piperidin-1-yl)methyl]-1-{[(2S)-oxetan-2-yl]methyl}-1H-1,3-benzodiazol-5-yl}oxetane-2-carboxamide] | 0.56
CO[C@@H](C)Cn1c(CN2CCC(c3cccc4c3O[C@@](C)(c3ccc(C#N)cc3F)O4)CC2)nc2cc(-c3nnc(C(F)(F)F)[nH]3)ncc21 [Compound 454a, 3-fluoro-4-[(2S)-4-[1-({3-[(2S)-2-methoxypropyl]-6-[5-(trifluoromethyl)-4H-1,2,4-triazol-3-yl]-3H-imidazo[4,5-c]pyridin-2-yl}methyl)piperidin-4-yl]-2-methyl-2H-1,3-benzodioxol-2-yl]benzonitrile] | 0.17
CO[C@H](C)Cn1c(CN2CCC(c3cccc4c3O[C@@](C)(c3ccc(Cl)cc3F)O4)CC2)nc2cc(-c3nnc(C(F)(F)F)[nH]3)nnc21 [Compound 452a, 4-[(2S)-2-(4-chloro-2-fluorophenyl)-2-methyl-2H-1,3-benzodioxol-4-yl]-1-({7-[(2R)-2-methoxypropyl]-3-[5-(trifluoromethyl)-4H-1,2,4-triazol-3-yl]-7H-imidazo[4,5-c]pyridazin-6-yl}methyl)piperidine] | 0.14
O=C(Nc1ccc2c(c1)nc(CN1CCC(c3cccc(OCc4ccc(Cl)cc4F)n3)CC1)n2C[C@@H]1CCO1)C1CCS(=O)(=O)CC1 [Compound 156a, N-{2-[(4-{6-[(4-chloro-2-fluorophenyl)methoxy]pyridin-2-yl}piperidin-1-yl)methyl]-1-{[(2S)-oxetan-2-yl]methyl}-1H-1,3-benzodiazol-5-yl}-1,1-dioxo-1λ^6-thiane-4-carboxamide] | 3
O=C(O)CCc1ccc2c(c1)nc(CN1CC=C(c3cccc(OCc4ccc(Cl)cc4F)n3)CC1)n2C[C@@H]1CCO1 [Compound 113a, (S)-3-(2-((6-((4-chloro-2-fluorobenzyl)oxy)-3′,6′-dihydro-[2,4′-bipyridin]-1′(2′H)-yl)methyl)-1-(oxetan-2-ylmethyl)-1H-benzo[d]imidazol-5-yl)propanoic acid] | 38.2
O=C(Nc1ccc2c(c1)nc(CN1CCC(c3cccc(OCc4ccc(Cl)cc4F)n3)CC1)n2C[C@@H]1CCO1)N1CCC(F)C1 (stereo partly drawn) [Compound 206a, N-{2-[(4-{6-[(4-chloro-2-fluorophenyl)methoxy]pyridin-2-yl}piperidin-1-yl)methyl]-1-{[(2S)-oxetan-2-yl]methyl}-1H-1,3-benzodiazol-5-yl}-3-fluoropyrrolidine-1-carboxamide] | 0.78
N#Cc1ccc(COc2cccc(C3=CCN(Cc4nc5cc(-c6nnc(C(F)(F)F)[nH]6)cnc5n4C[C@@H]4CCO4)CC3)c2)c(F)c1 [Compound 317a, 3-fluoro-4-[(3-{1-[(3-{[(2S)-oxetan-2-yl]methyl}-6-[5-(trifluoromethyl)-4H-1,2,4-triazol-3-yl]-3H-imidazo[4,5-b]pyridin-2-yl)methyl]-1,2,3,6-tetrahydropyridin-4-yl}phenoxy)methyl]benzonitrile] | 0.11
Cc1cn(-c2ccc3c(c2)nc(CN2CCC(c4cccc(OCc5ccc(Cl)cc5F)n4)CC2)n3C[C@@H]2CCO2)nn1 [Compound 210a, 2-[(4-{6-[(4-chloro-2-fluorophenyl)methoxy]pyridin-2-yl}piperidin-1-yl)methyl]-5-(4-methyl-1H-1,2,3-triazol-1-yl)-1-{[(2S)-oxetan-2-yl]methyl}-1H-1,3-benzodiazole] | 4.2
C[C@H]1CN(c2ccc(F)c(OCc3ccc(C#N)cc3F)c2)CCN1Cc1nc2cc(-c3nnc(C(F)(F)F)[nH]3)ncc2n1C[C@@H]1CCO1 [Compound 506a, 3-fluoro-4-({2-fluoro-5-[(3S)-3-methyl-4-[(3-{[(2S)-oxetan-2-yl]methyl}-6-[5-(trifluoromethyl)-4H-1,2,4-triazol-3-yl]-3H-imidazo[4,5-c]pyridin-2-yl)methyl]piperazin-1-yl]phenoxy}methyl)benzonitrile] | 0.076
CC1(c2ccc(Cl)cc2F)Oc2cccc(C3CCN(Cc4nc5cc(-c6noc(=O)[nH]6)ccc5n4C[C@@H]4CCO4)CC3)c2O1 (mixture of isomers) [Compound 239a, 3-(2-((4-(2-(4-chloro-2-fluorophenyl)-2-methylbenzo[d][1,3]dioxol-4-yl)piperidin-1-yl)methyl)-1-(((S)-oxetan-2-yl)methyl)-1H-benzo[d]imidazol-5-yl)-1,2,4-oxadiazol-5(4H)-one] | 0.071
CC(=O)Nc1ccc2c(c1)nc(CN1CCC(c3cccc4c3OC(C)(c3ccc(Cl)cc3F)O4)CC1)n2C[C@@H]1CCO1 (stereo partly drawn) [Compound 115a, N-(2-((4-(2-(4-chloro-2-fluorophenyl)-2-methylbenzo[d][1,3]dioxol-4-yl)piperidin-1-yl)methyl)-1-((S)-oxetan-2-ylmethyl)-1H-benzo[d]imidazol-5-yl)acetamide] | 1.17
CO[C@H](C)Cn1c(CN2CCC(c3cccc4c3OC(C)(c3ccc(Cl)cn3)O4)CC2)nc2cc(-c3nnc(C(F)(F)F)[nH]3)ncc21 (stereo partly drawn) [Compound 428a, 5-chloro-2-{4-[1-({3-[(2R)-2-methoxypropyl]-6-[5-(trifluoromethyl)-4H-1,2,4-triazol-3-yl]-3H-imidazo[4,5-c]pyridin-2-yl}methyl)piperidin-4-yl]-2-methyl-2H-1,3-benzodioxol-2-yl}pyridine] | 0.36
Fc1cc(Cl)ccc1COc1cc(C2=CCN(Cc3nc4cc(-c5nnc(C(F)(F)F)[nH]5)cnc4n3C[C@@H]3CCO3)CC2)ccc1F [Compound 294a, 4-{3-[(4-chloro-2-fluorophenyl)methoxy]-4-fluorophenyl}-1-[(3-{[(2S)-oxetan-2-yl]methyl}-6-[5-(trifluoromethyl)-4H-1,2,4-triazol-3-yl]-3H-imidazo[4,5-b]pyridin-2-yl)methyl]-1,2,3,6-tetrahydropyridine] | 0.47
C[C@H]1CN(c2ccc(F)c(OCc3ccc(Cl)cc3F)c2)CCN1Cc1nc2cc(-c3nnc(C(F)(F)F)[nH]3)ncc2n1C[C@@H]1CCO1 [Compound 479a, (2S)-4-{3-[(4-chloro-2-fluorophenyl)methoxy]-4-fluorophenyl}-2-methyl-1-[(3-{[(2S)-oxetan-2-yl]methyl}-6-[5-(trifluoromethyl)-4H-1,2,4-triazol-3-yl]-3H-imidazo[4,5-c]pyridin-2-yl)methyl]piperazine] | 0.1

These reach a lower EC50. Values come first.

EC50 [nM] | Structure (SMILES)
0.062 | CC1(c2ccc(Cl)cn2)Oc2cccc(C3CCN(Cc4nc5cc(-c6nnn[nH]6)ncc5n4C[C@@H]4CCO4)CC3)c2O1 (stereo partly drawn) [Compound 450a, 5-chloro-2-(2-methyl-4-{1-[(3-{[(2S)-oxetan-2-yl]methyl}-6-(1H-1,2,3,4-tetrazol-5-yl)-3H-imidazo[4,5-c]pyridin-2-yl)methyl]piperidin-4-yl}-2H-1,3-benzodioxol-2-yl)pyridine]
0.045 | Fc1cc(Cl)ccc1COc1nccc(C2CCN(Cc3nc4cc(-c5nnc(C(F)(F)F)[nH]5)ncc4n3C[C@@H]3CCO3)CC2)n1 [Compound 505a, 2-[(4-chloro-2-fluorophenyl)methoxy]-4-{1-[(3-{[(2S)-oxetan-2-yl]methyl}-6-[5-(trifluoromethyl)-4H-1,2,4-triazol-3-yl]-3H-imidazo[4,5-c]pyridin-2-yl)methyl]piperidin-4-yl}pyrimidine]
0.045 | C[C@]1(c2ccc(Cl)cn2)Oc2cccc(C3CCN(Cc4nc5cc(-c6nnc(C(F)(F)F)[nH]6)nnc5n4C[C@@H]4CCO4)CC3)c2O1 [Compound 462a, 5-chloro-2-[(2S)-2-methyl-4-{1-[(7-{[(2S)-oxetan-2-yl]methyl}-3-[5-(trifluoromethyl)-4H-1,2,4-triazol-3-yl]-7H-imidazo[4,5-c]pyridazin-6-yl)methyl]piperidin-4-yl}-2H-1,3-benzodioxol-2-yl]pyridine]
0.04 | C[C@]1(c2ccc(Cl)cn2)Oc2cccc(C3CCN(Cc4nc5cc(-c6noc(=O)[nH]6)ncc5n4C[C@@H]4CCO4)CC3)c2O1 [Compound 430a, 3-[2-({4-[(2S)-2-(5-chloropyridin-2-yl)-2-methyl-2H-1,3-benzodioxol-4-yl]piperidin-1-yl}methyl)-3-{[(2S)-oxetan-2-yl]methyl}-3H-imidazo[4,5-c]pyridin-6-yl]-4,5-dihydro-1,2,4-oxadiazol-5-one]
0.04 | CC1(c2ccc(Cl)cc2F)Oc2cccc(C3CCN(Cc4nc5cc(-c6nnc(C(F)(F)F)[nH]6)ccc5n4C[C@@H]4CCO4)CC3)c2O1 (single isomer, unassigned) [Compound 229c]
0.034 | CC1(c2ccc(Cl)cc2)Oc2cccc(C3CCN(Cc4nc5cc(-c6nnc(C(F)(F)F)[nH]6)ncc5n4C[C@@H]4CCO4)CC3)c2O1 (stereo partly drawn) [Compound 361a, 4-[2-(4-chlorophenyl)-2-methyl-2H-1,3-benzodioxol-4-yl]-1-[(3-{[(2S)-oxetan-2-yl]methyl}-6-[5-(trifluoromethyl)-4H-1,2,4-triazol-3-yl]-3H-imidazo[4,5-c]pyridin-2-yl)methyl]piperidine]
0.026 | C[C@H]1CN(c2nc(OCc3ccc(Cl)cc3F)ccc2F)CCN1Cc1nc2cc(-c3nnc(C(F)(F)F)[nH]3)ncc2n1C[C@@H]1CCO1 [Compound 525a, (2S)-4-{6-[(4-chloro-2-fluorophenyl)methoxy]-3-fluoropyridin-2-yl}-2-methyl-1-[(3-{[(2S)-oxetan-2-yl]methyl}-6-[5-(trifluoromethyl)-4H-1,2,4-triazol-3-yl]-3H-imidazo[4,5-c]pyridin-2-yl)methyl]piperazine]
